Test results reported in patent US20240076406A1, “SINGLE DOMAIN ANTIBODIES TARGETING CA-IX AS WELL AS COMPOSITIONS COMPRISING SAME” (National Research Council of Canada, priority 2021, published 2024).

What was measured:
[1] = test system: SKRC59 and SKRC52 cell lines (low and high levels of hCA-IX); experiment: Cell binding assay, plate format; type: cell-based, human; conditions: cell line of Table 3 not stated
Method: Cell binding assays were performed using a plate-based format, binding was expressed as the mean fluorescent intensity per cell area. (control IgG (●), cG250 (▪), sdCA9-1-Fc (▴), and sdCA9-2-Fc (▾)). KD values were determined by plotting fluorescent intensity measured for each condition of the sdCA9-Fc antibodies using Graphpad Prism. cG250 full sized antibody (FSA) and isotype matching IgG FSA were used as bench mark and negative control, respectively.
Cell binding. […] These cell lines have been used in the literature for the screening of scFv Abs for binding to hCA-IX (Xu et al. 2010). KD values were determined to be in the low nanomolar range, the clinically used cG250 full sized antibody (FSA) was used as a bench mark. An isotype matching hIgG was used as negative control (FIG. 5).

[2] = test system: 67NR^hCA-IX derived spheroids; experiment: Spheroid growth inhibition, 67NR^hCA-IX; type: cell-based, mouse; conditions: monitored for 8 days; compared with 67NR derived spheroids
Source text: Spheroid growth inhibition.

[3] = molecular target: T1, purified hCA-IX ECD dimer (Homo sapiens, UniProt Q16790); experiment: In vitro rhCA-IX enzyme activity inhibition (4Mu-Ac hydrolysis); type: biochemical; conditions: [inhibitor] vs. normalized response - variable slope
T1 construct: in vitro enzyme activity assay using purified hCA-IX ECD dimer
Method: In vitro rhCA-IX enzyme activity inhibition. In order to examine the functional consequence of the binding of the two sdCA9-VHH antibodies to hCA-IX ECD, antibodies were tested in an in vitro enzyme activity assay using purified hCA-IX ECD dimer and 4-Methylumbelliferyl acetate (4Mu-Ac) as substrate.

Compound | Kd ([1]; cell binding, text: low nanomolar range, read-out: KD (best-fit value, one site specific binding)) [nM] | Bmax (best-fit value, one site specific binding) ([1]; mean fluorescent intensity per cell area) | spheroid growth, different concentrations [2] | HillSlope (best fit value) [3]
cG250: clinically used anti-CA-IX full sized antibody (FSA), used as bench mark [reference compound] | 1.29 | 574.6 |  | 
NS(=O)(=O)c1ccc(NC(=O)Nc2ccc(F)cc2)cc1 [Clone U104, reference compound] |  |  | inhibited spheroid growth in a dose-dependent manner | −0.3305
